Test [1] addresses T1, human histamine H4 receptor (Homo sapiens, UniProt Q9H3N8).
T1 construct: expressed in transfected cells; host or cells: SK-N-MC or COS7 cells, transiently transfected with pH4R; cell membranes
Briefly: Binding assay on recombinant human histamine H4 receptor.

Test [2] concerns Mast cells. Kind of test: Mast cell chemotaxis assay. It counts as cell-based. The settings on record: 10 μM Histamine. On the procedure: Mast Cell Chemotaxis Assay
Mast cell accumulation in mucosal epithelia is a well-known characteristic of allergic rhinitis and asthma. Transwells (Costar, Cambridge, Mass.) of a pore size 8 μm were coated with 100 μL of 100 ng/mL human fibronectin (Sigma) for 2 h at room temperature. […] Mast cells (2×10^5/well) were added to the top chamber. The plates were incubated for 3 h at 37° C. Transwells were removed and the cells in the bottom chamber were counted for sixty seconds using a flow cytometer.

Test [3] concerns human eosinophils. Briefly: Inhibition of eosinophil shape change (GAFS). The class given is cell-based. The settings on record: for effect on histamine-induced shape change: H1 or H2 specific antagonist. As to the method:
Eosinophil accumulation in sites of allergic reaction is a well-known characteristic of allergic rhinitis and asthma. […] Shape change is a cellular characteristic that precedes eosinophil chemotaxis.
Human granulocytes were isolated from human blood by a Ficoll gradient. The red blood cells were lysed with 5-10× Qiagen lysis buffer at room temperature for 5-7 min. Granulocytes were harvested and washed once with FACS buffer. The cells were resuspended at a density of 2×10^6 cells/mL in reaction buffer. […] Ten minutes later the cells were transferred to ice and fixed with 250 μL of ice-cold fixative buffer (2% formaldehyde) for 1 min.

Setting [4] is: 3H-histamine competition, membranes of SK-N-MC or COS7 cells expressing human H4, read-out: Ki.
[5] abbreviates: repeated in the chemotaxis table, read-out: Binding Assay Ki.
Where [6] appears, read: Histamine 0 μM, 10 μM HR antagonist.
The mark [7] stands for this setting: Histamine 0.01 μM, 10 μM HR antagonist.
[8] abbreviates: Histamine 0.1 μM, 10 μM HR antagonist.
The mark [9] stands for this setting: Histamine 1 μM, 10 μM HR antagonist.
[10] abbreviates: Histamine 10 μM, 10 μM HR antagonist.

Read-outs that look alike come from different tables or passages of the source.

T1 sequence (Q9H3N8 whole entry): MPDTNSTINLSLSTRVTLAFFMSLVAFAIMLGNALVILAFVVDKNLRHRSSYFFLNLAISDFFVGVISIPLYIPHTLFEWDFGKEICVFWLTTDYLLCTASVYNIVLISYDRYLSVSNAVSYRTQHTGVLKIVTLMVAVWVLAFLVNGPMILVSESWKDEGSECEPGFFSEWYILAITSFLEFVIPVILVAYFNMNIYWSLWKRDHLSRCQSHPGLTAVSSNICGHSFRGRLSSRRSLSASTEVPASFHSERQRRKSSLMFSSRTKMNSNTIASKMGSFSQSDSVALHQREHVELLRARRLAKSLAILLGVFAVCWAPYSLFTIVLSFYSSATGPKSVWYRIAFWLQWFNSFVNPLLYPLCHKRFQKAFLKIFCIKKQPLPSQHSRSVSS

Consider `CN1CCN(C(=O)c2cc3scc(Br)c3[nH]2)CC1` [Example 12, (3-Bromo-4H-thieno[3,2-b]pyrrol-5-yl)-(4-methyl-piperazin-1-yl)-methanone], for which, in test [1] (setting [4]), the Ki was 56 nM.
Take `O=C(c1cc2cc(Cl)sc2[nH]1)N1CCN2CCCC2C1` (stereo not shown) [Example 4, (2-Chloro-6H-thieno[2,3-b]pyrrol-5-yl)-(hexahydro-pyrrolo[1,2-a]pyrazin-2-yl)-methanone]: the inhibition constant Ki in test [1] (setting [4]) and in test [1] (setting [5]) was 176 nM in each case. The “% Inh” value in test [2] (HR Antagonist 1 μM) and in test [2] (HR Antagonist 10 μM) was less than 5% in each case.
Turning to `O=C(c1cc2sc(Cl)cc2[nH]1)N1CCN2CCCC2C1` (stereo not shown) [Example 11, (2-Chloro-4H-thieno[3,2-b]pyrrol-5-yl)-(hexahydro-pyrrolo[1,2-a]pyrazin-2-yl)-methanone], the Ki in test [1] (setting [4]) worked out at 715 nM.
`Cc1csc2cc(C(=O)N3CCN(C)CC3)[nH]c12` [Example 13, (4-Methyl-piperazin-1-yl)-(3-methyl-4H-thieno[3,2-b]pyrrol-5-yl)-methanone]: the Ki in test [1] (setting [4]) and in test [1] (setting [5]) was 21 nM throughout. In test [2] (HR Antagonist 1 μM), the “% Inh” value came out at 60%.
On to `O=C(c1cc2scc(Br)c2[nH]1)N1CCNCC1` [Example 19, (3-Bromo-4H-thieno[3,2-b]pyrrol-5-yl)-piperazin-1-yl-methanone], for which the inhibitory constant (Ki) in test [1] (setting [4]) amounted to 410 nM.
With `NCCc1c[nH]cn1` [Histamine, histamine], the “Fold Change” value in test [3] (Histamine 0.01 μM, No HR Antagonist) worked out at 1.01; in test [3] (Histamine 0.1 μM, No HR Antagonist), 1.21; in test [3] (Histamine 1 μM, No HR Antagonist) it was 1.31; in test [3] (Histamine 10 μM, No HR Antagonist), 1.34. Also, the “shape change in eosinophils” value in test [3] (histamine alone) was “induces a dose-dependent shape change”.
As to `O=C(c1cc2cc(Cl)sc2[nH]1)N1CCNCC1` [Example 5, (2-Chloro-6H-thieno[2,3-b]pyrrol-5-yl)-piperazin-1-yl-methanone], the Ki in test [1] (setting [4]) came out at 56 nM.
For the compound `Cc1csc2cc(C(=O)N3CCNC(C)C3)[nH]c12` (stereo not shown) [Example 22, (3-Methyl-piperazin-1-yl)-(3-methyl-4H-thieno[3,2-b]pyrrol-5-yl)-methanone], the Ki in test [1] (setting [4]) was 161 nM.
The same measure, in the same setting: next, `Cc1csc2cc(C(=O)N3CCNCC3)[nH]c12` [Example 21, (3-Methyl-4H-thieno[3,2-b]pyrrol-5-yl)-piperazin-1-yl-methanone]: 80 nM; `Cc1c(Cl)sc2cc(C(=O)N3CCNCC3)[nH]c12` [Example 24, (2-Chloro-3-methyl-4H-thieno[3,2-b]pyrrol-5-yl)-piperazin-1-yl-methanone]: 30 nM.
The same measure, in the same setting: as for `CN1CCN(C(=O)c2cc3ccsc3[nH]2)CC1` [Example 1, (4-Methyl-piperazin-1-yl)-(6H-thieno[2,3-b]pyrrol-5-yl)-methanone], the figure is 85 nM.
Still for that read-out and setting: as for `CC1CN(C(=O)c2cc3sccc3[nH]2)CCN1` (stereo not shown) [Example 9, (3-Methyl-piperazin-1-yl)-(4H-thieno[3,2-b]pyrrol-5-yl)-methanone], the figure is 733 nM; as for `O=C(c1cc2ccsc2[nH]1)N1CCN2CCCC2C1` (stereo not shown) [Example 2, (Hexahydro-pyrrolo[1,2-a]pyrazin-2-yl)-(6H-thieno[2,3-b]pyrrol-5-yl)-methanone], 461 nM.
In the case of `CN1CCN(C(=O)c2cc3c(Cl)c(Cl)sc3[nH]2)CC1` [Example 17, (2,3-Dichloro-6H-thieno[2,3-b]pyrrol-5-yl)-(4-methyl-piperazin-1-yl)-methanone], the Ki in test [1] (setting [4]) is 10 nM.
Take `Cc1cc2[nH]c(C(=O)N3CCN(C)CC3)cc2o1` [Example 14, (2-Methyl-4H-furo[3,2-b]pyrrol-5-yl)-(4-methyl-piperazin-1-yl)-methanone]: the Ki in test [1] (setting [4]) was found to be 343 nM.
As for `CN1CCN(C(=O)c2cc3sc(Cl)cc3[nH]2)CC1` [Example 10, (2-Chloro-4H-thieno[3,2-b]pyrrol-5-yl)-(4-methyl-piperazin-1-yl)-methanone], the Ki in test [1] (setting [4]) and in test [1] (setting [5]) was 40 nM each time.
Regarding `O=C(c1cc2sccc2[nH]1)N1CCNCC1` [Example 8, Piperazin-1-yl-(4H-thieno[3,2-b]pyrrol-5-yl)-methanone], the inhibitory constant (Ki) in test [1] (setting [4]) stood at 343 nM.
Still for that read-out and setting: next, `Cc1sc2cc(C(=O)N3CCN(C)CC3)[nH]c2c1C` [Example 16, (2,3-Dimethyl-4H-thieno[3,2-b]pyrrol-5-yl)-(4-methyl-piperazin-1-yl)-methanone]: 5 nM.
Consider `CC1CN(C(=O)c2cc3scc(Br)c3[nH]2)CCN1` (stereo not shown) [Example 20, (3-Bromo-4H-thieno[3,2-b]pyrrol-5-yl)-(3-methyl-piperazin-1-yl)-methanone], for which the Ki in test [1] (setting [4]) and in test [1] (setting [5]) was 980 nM in each case. In addition, the “% Inh” value in test [2] (HR Antagonist 1 μM) and in test [2] (HR Antagonist 10 μM) was less than 5% in each case.
`CN(C)CCOC(c1ccccc1)c1ccccc1` [diphenhydramine]: in test [3], the “effect on histamine-induced shape change” value is given as “did not alter”. Also, the “Fold Change” value in test [3] (setting [6]) worked out at 1.00; in test [3] (setting [7]), 1.03; in test [3] (setting [8]), 1.18; in test [3] (setting [9]), 1.50; in test [3] (setting [10]), 1.63.
As for `CN1CCN(C(=O)c2cc3occc3[nH]2)CC1` [Example 6, (4H-Furo[3,2-b]pyrrol-5-yl)-(4-methyl-piperazin-1-yl)-methanone], the Ki in test [1] (setting [4]) is 840 nM.
The same measure, in the same setting: next, `CN1CCN(C(=O)c2cc3sc(Cl)c(Cl)c3[nH]2)CC1` [Example 25, (2,3-Dichloro-4H-thieno[3,2-b]pyrrol-5-yl)-(4-methyl-piperazin-1-yl)-methanone]: 5.5 nM.
The same measure, in the same setting: next, `Cc1c(Cl)sc2cc(C(=O)N3CCN(C)CC3)[nH]c12` [Example 23, (2-Chloro-3-methyl-4H-thieno[3,2-b]pyrrol-5-yl)-(4-methyl-piperazin-1-yl)-methanone]: 3 nM.
In the case of `CNC(=C[N+](=O)[O-])NCCSCc1ccc(CN(C)C)o1` [ranatidine], the “effect on histamine-induced shape change” value in test [3] is on record as “did not alter”. Moreover, the “Fold Change” value in test [3] (setting [6]) is reported as 1.00; in test [3] (setting [7]), 1.04; in test [3] (setting [8]) it was 1.21; in test [3] (setting [9]), 1.49; in test [3] (setting [10]) it was 1.64.
As for `CN1CCN(C(=O)c2cc3sccc3[nH]2)CC1` [Example 7, (4-Methyl-piperazin-1-yl)-(4H-thieno[3,2-b]pyrrol-5-yl)-methanone], in test [1] (setting [4]), the Ki is 125 nM.
On the same count and under the same terms, next, `Cc1oc2cc(C(=O)N3CCN(C)CC3)[nH]c2c1C` [Example 15, (2,3-Dimethyl-4H-furo[3,2-b]pyrrol-5-yl)-(4-methyl-piperazin-1-yl)-methanone]: 140 nM.
`Cc1cc2[nH]c(C(=O)N3CCNCC3)cc2o1` [Example 18, (2-Methyl-4H-furo[3,2-b]pyrrol-5-yl)-piperazin-1-yl-methanone]: the inhibitory constant (Ki) in test [1] (setting [4]) was 770 nM.
Regarding `CN1CCN(C(=O)c2cc3cc(Cl)sc3[nH]2)CC1` [Example 3, (2-Chloro-6H-thieno[2,3-b]pyrrol-5-yl)-(4-methyl-piperazin-1-yl)-methanone], the inhibition constant (Ki) in test [1] (setting [4]) and in test [1] (setting [5]) was 25 nM in each case.

One may read the Ki as the dissociation constant of the complex between target and ligand, obtained from inhibition or displacement.
